Results as given in patent publication US10968169B2, “Urea derivative” (Daiichi Sankyo Company, Limited, priority 2016, dated 2021).
pIC50: −log10 of the molar value.

Molecular target: tryptophanase of Bacteroides thetaiotamicron (Bacteroides thetaiotaomicron, UniProt Q8A7N2)
Assay: Tryptophanase enzyme inhibitory activity (LDH-coupled NADH loss)
Assay type: biochemical
Settings: L-tryptophan 10 mM, 37° C., absorbance at 340 nm; read-out: Bacteroides Activity of Inhibiting Tryptophanase (IC50)
Experimental: Tryptophanase inhibitory activity was evaluated by a method using lactate dehydrogenase (LDH). The reaction time-dependent reduction in NADH conjugated with the enzymatic reaction, with LDH, of pyruvic acid produced through the enzymatic reaction of L-tryptophan as a substrate with tryptophanase, was measured with a spectrophotometer (Phillips-R S et al., Biochemistry, 23, 6228-6234 (1984)). Enzyme inhibitory activity obtained without adding a test compound (by adding DMSO alone) in the presence of tryptophanase was used as a control. As the enzyme, tryptophanase of Bacteroides thetaiotamicron (Genbank accession number: HC914434.1) was used. A test compound solution was prepared by dissolving each test compound in DMSO in an arbitrary concentration (from 30 mM to 30 nM at 10-fold common ratio). LDH, NADH and L-tryptophan were prepared, using distilled water, respectively to concentrations of 80 units/mL, 10 mM and […]. Bacteroides tryptophanase was prepared to 30 mg/mL. A potassium phosphate buffer was used as the buffer. [table] A reaction solution A was dispensed at 284.8 μL per well into a 96-well plate, and the test compound solution was added at 3.2 μL per well to obtain a final concentration of 1/100 (reaction solution B). The reaction solution B was incubated at 37° C. for 30 minutes, L-tryptophan was added thereto at 32 μL per well to obtain a final concentration of 10 mM (reaction solution C), and the enzyme reaction was performed at 37° C. over 30 minutes with absorbance at 340 nm measured for monitoring the NADH loss. Based on the NADH loss, the tryptophanase inhibitory activity of the compound was evaluated. Besides, the following compounds were similarly tested instead of the test compound.

Sequence of tryptophanase of Bacteroides thetaiotamicron (Q8A7N2 entry or part of it, change not shown): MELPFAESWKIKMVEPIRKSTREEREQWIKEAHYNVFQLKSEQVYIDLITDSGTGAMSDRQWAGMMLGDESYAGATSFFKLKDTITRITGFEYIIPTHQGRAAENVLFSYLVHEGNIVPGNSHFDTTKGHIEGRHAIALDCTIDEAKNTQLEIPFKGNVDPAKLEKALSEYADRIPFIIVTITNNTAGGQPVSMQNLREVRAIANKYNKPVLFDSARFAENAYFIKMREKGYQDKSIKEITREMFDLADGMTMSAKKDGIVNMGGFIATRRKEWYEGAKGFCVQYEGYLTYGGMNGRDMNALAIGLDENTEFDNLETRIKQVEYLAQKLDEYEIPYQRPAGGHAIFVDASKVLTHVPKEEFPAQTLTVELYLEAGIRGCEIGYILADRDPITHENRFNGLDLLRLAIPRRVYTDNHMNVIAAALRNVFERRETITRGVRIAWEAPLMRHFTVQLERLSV

Row | pIC50 | Structure (SMILES)
1 | 4.81 | CC[C@@](C)(NC(=O)Nc1ccc(Cl)c(Cl)c1)C(=O)O [Example 29, N-[(3,4-Dichlorophenyl)carbamoyl]-D-isovaline]
2 | 4.69 | CC(NC(=O)Nc1ccc(OC(F)(F)F)cc1)(C(=O)O)C1CC1 (centres unmarked) [Example 2, 2-Cyclopropyl-2-({[4-(trifluoromethoxy)phenyl]carbamoyl}amino)propanoic acid]
3 | 5.28 | CCC(CC)(NC(=O)Nc1ccc(C2(C#N)CC2)cc1)C(=O)O [Example 39, 2-({[4-(1-Cyanocyclopropyl)phenyl]carbamoyl}amino)-2-ethylbutanoic acid]
4 | 5.28 | CC[C@@](C)(NC(=O)Nc1ccc(OC(F)F)c(Cl)c1)C(=O)O [Example 18, N-{[3-Chloro-4-(difluoromethoxy)phenyl]carbamoyl}-D-isovaline]
5 | 5.17 | CC[C@@](C)(NC(=O)Nc1ccc(CC(F)(F)F)cc1)C(=O)O [Example 13, N-{[4-(2,2,2-Trifluoroethyl)phenyl]carbamoyl}-D-isovaline]
6 | 4.91 | CC[C@@](C)(NC(=O)Nc1ccc(OC(F)F)cc1F)C(=O)O [Example 17, N-{[4-(Difluoromethoxy)-2-fluorophenyl]carbamoyl}-D-isovaline]
7 | 5.30 | O=C(Nc1ccccc1)NC(C(=O)O)(C1CC1)C1CC1 [Example 21, Dicyclopropyl[(phenylcarbamoyl)amino]acetic acid]
8 | 6.00 | CCC(NC(=O)Nc1cccc(C#N)c1)(C(=O)O)C1CC1 (centres unmarked) [Example 32, 2-{[(3-Cyanophenyl)carbamoyl]amino}-2-cyclopropylbutanoic acid]
9 | 4.70 | CCC(CC)(NC(=O)Nc1cc(F)cc(C#N)c1)C(=O)O [Example 36, 2-{[(3-Cyano-5-fluorophenyl)carbamoyl]amino}-2-ethylbutanoic acid]
10 | 5.72 | O=C(Nc1ccc(OC(F)F)cc1)NC(C(=O)O)(C1CC1)C1CC1 [Example 10, Dicyclopropyl({[4-(difluoromethoxy)phenyl]carbamoyl}amino)acetic acid]
11 | 5.24 | CCC(CC)(NC(=O)Nc1ccc(C(C)C#N)cc1)C(=O)O (centres unmarked) [Example 40, 2-({[4-(1-Cyanoethyl)phenyl]carbamoyl}amino)-2-ethylbutanoic acid]
12 | 5.06 | CC(C)CC(C)(NC(=O)Nc1ccc(OC(F)(F)F)cc1)C(=O)O (centres unmarked) [Example 3, 2-Methyl-N-{[4-(trifluoromethoxy)phenyl]carbamoyl}leucine]
13 | 6.52 | CCC(NC(=O)Nc1ccc(OC(F)(F)F)cc1)(C(=O)O)C1CC1 (centres unmarked) [Example 7, 2-Cyclopropyl-2-({[4-(trifluoromethoxy)phenyl]carbamoyl}amino)butanoic acid]
14 | 4.60 | CCC(CC)(NC(=O)Nc1ccc(Cl)c(C#N)c1)C(=O)O [Example 37, 2-{[(4-Chloro-3-cyanophenyl)carbamoyl]amino}-2-ethylbutanoic acid]
15 | 6.22 | CCC(NC(=O)Nc1ccc(OC(F)F)cc1)(C(=O)O)C1CC1 (centres unmarked) [Example 11, 2-Cyclopropyl-2-({[4-(difluoromethoxy)phenyl]carbamoyl}amino)butanoic acid]
16 | 4.88 | CC[C@@](C)(NC(=O)Nc1cccc(Cl)c1)C(=O)O [Example 26, N-[(3-Chlorophenyl)carbamoyl]-D-isovaline]
17 | 5.77 | O=C(Nc1ccc(OC(F)(F)F)cc1)NC(C(=O)O)(C1CC1)C1CC1 [Example 5, Dicyclopropyl({[4-(trifluoromethoxy)phenyl]carbamoyl}amino)acetic acid]
18 | 5.06 | CC[C@@](C)(NC(=O)Nc1ccc(OC(F)(F)F)cc1)C(=O)O [Example 4, (−)-N-{[4-(Trifluoromethoxy)phenyl]carbamoyl}-D-isovaline]

Row | pIC50 | Structure (SMILES)
19 | 5.47 | N#CCc1ccc(NC(=O)NC(C(=O)O)(C2CC2)C2CC2)cc1 [Example 38, ({[4-(Cyanomethyl)phenyl]carbamoyl}amino)(dicyclopropyl)acetic acid]
20 | 5.68 | CCC(NC(=O)Nc1ccccc1)(C(=O)O)C1CC1 (centres unmarked) [Example 22, 2-Cyclopropyl-2-[(phenylcarbamoyl)amino]butanoic acid]
21 | 7.00 | CCC(CC)(NC(=O)Nc1ccc(-c2ccccc2F)cc1)C(=O)O [Example 42, 2-Ethyl-2-{[(2′-fluorobiphenyl-4-yl)carbamoyl]amino}butanoic acid]
22 | 6.52 | CCC(CC)(NC(=O)Nc1ccc(-c2ccccc2)cc1)C(=O)O [Example 41, 2-[(Biphenyl-4-ylcarbamoyl)amino]-2-ethylbutanoic acid]
23 | 4.45 | CC[C@@](C)(NC(=O)Nc1ccc(OC(F)(F)F)c(C#N)c1)C(=O)O [Example 19, N-{[3-Cyano-4-(trifluoromethoxy)phenyl]carbamoyl}-D-isovaline]
24 | 4.96 | N#Cc1ccc(NC(=O)NC(C(=O)O)(C2CC2)C2CC2)cc1 [Example 35, {[(4-Cyanophenyl)carbamoyl]amino}(dicyclopropyl)acetic acid]
25 | 5.80 | CCC(CC)(NC(=O)Nc1ccc(N2CCCCC2)cc1)C(=O)O [Example 43]
26 | 5.28 | CCCC(CC)(NC(=O)Nc1ccc(OC(F)(F)F)cc1)C(=O)O (centres unmarked) [Example 6, 2-Ethyl-N-{[4-(trifluoromethoxy)phenyl]carbamoyl}norvaline]
27 | 4.94 | CCC(CC)(NC(=O)Nc1ccc(C(F)(F)F)cc1)C(=O)O [Example 20, 2-Ethyl-2-({[4-(trifluoromethyl)phenyl]carbamoyl}amino)butanoic acid]
28 | 5.38 | CCC(CC)(NC(=O)Nc1ccc(OC(F)F)cc1F)C(=O)O [Example 16, 2-({[4-(Difluoromethoxy)-2-fluorophenyl]carbamoyl}amino)-2-ethylbutanoic acid]
29 | 6.40 | CCC(CC)(NC(=O)Nc1ccc(SC(F)(F)F)cc1)C(=O)O [Example 14, 2-Ethyl-2-[({4-[(trifluoromethyl)sulfanyl]phenyl}carbamoyl)amino]butanoic acid]
30 | 5.74 | N#Cc1cccc(NC(=O)NC(C(=O)O)(C2CC2)C2CC2)c1 [Example 34, {[(3-Cyanophenyl)carbamoyl]amino}(dicyclopropyl)acetic acid]
31 | 5.49 | CCC(CC)(NC(=O)Nc1ccc(Cl)s1)C(=O)O [Example 28, 2-{[(5-Chlorothiophen-2-yl)carbamoyl]amino}-2-ethylbutanoic acid]
32 | 5.43 | CCC(CC)(NC(=O)Nc1ccc(OC(F)(F)F)cc1)C(=O)O [Example 1, 2-Ethyl-2-({[4-(trifluoromethoxy)phenyl]carbamoyl}amino)butanoic acid]
33 | 4.48 | CC[C@@](C)(NC(=O)Nc1cccc(F)c1)C(=O)O [Example 24, N-[(3-Fluorophenyl)carbamoyl]-D-isovaline]
34 | 5.28 | CCC(NC(=O)Nc1ccc(F)cc1)(C(=O)O)C1CC1 (centres unmarked) [Example 23, 2-Cyclopropyl-2-{[(4-fluorophenyl)carbamoyl]amino}butanoic acid]
35 | 5.60 | CCC(CC)(NC(=O)Nc1ccc(N2CCC(F)(F)C2)cc1)C(=O)O [Example 44, 2-({[4-(3,3-Difluoropyrrolidine-1-yl)phenyl]carbamoyl}amino)-2-ethylbutanoic acid]
